# Patent US20260102359A1, “COMBINATION TREATMENT OF DERMAL AND TRANSDERMAL FIBROTIC DISEASES, DISORDERS AND ASSOCIATED PAIN AND INFLAMMATION” (ERESINA, LLC, priority 2022, published 2026)
# Counter-ions that a name gives are not always drawn.
# Test system: hDMFa myofibroblast cells
row,SMILES,Compound Myofibroblast Cytotoxicity Activity
1,"CCOC(=O)c1ccc(N)cc1 [Cmpd 166, Benzocaine]",++
2,"O=C(O)c1ccccc1 [Cmpd 167, Benzoic Acid]",++
3,"O=C(c1ccccc1)c1ccccc1 [Cmpd 168, Benzophenone]",++
4,"COc1ccc2cc3[n+](cc2c1OC)CCc1cc2c(cc1-3)OCO2.[Cl-] [Cmpd 172, Berberine hydrochloride]",++
5,"COc1ccc2cc3[n+](cc2c1OC)CCc1cc2c(cc1-3)OCO2 [Cmpd 173, Berberine Sulfate]",++
6,"CNCCc1ccccn1.CS(=O)(=O)O.CS(=O)(=O)O [Cmpd 175, Betahistine mesylate]",++
7,"CCCCC(=O)O[C@]1(C(=O)CO)[C@@H](C)C[C@H]2[C@@H]3CCC4=CC(=O)C=C[C@]4(C)[C@@]3(F)[C@@H](O)C[C@@]21C [Cmpd 176, Betamethasone Valerate]",++
8,"O=C(O)CCNC(=O)c1ccccc1 [Cmpd 177, Betamipron]",+++++
9,"C=C(c1ccc(C(=O)O)cc1)c1cc2c(cc1C)C(C)(C)CCC2(C)C [Cmpd 178, Bexarotene]",++++
10,"c1ccc(-c2ccc(C(c3ccccc3)n3ccnc3)cc2)cc1 (stereo not shown) [Cmpd 182, Bifonazole]",+++
11,"Cc1ccc(-n2nc(C(C)(C)C)cc2NC(=O)Nc2ccc(OCCN3CCOCC3)c3ccccc23)cc1 [Cmpd 183, BIRB 796 (Doramapimod)]",++
12,"CC[C@H](NC(=O)[C@H](C)NC)C(=O)N1C[C@@H](O)C[C@H]1Cc1c(-c2[nH]c3cc(F)ccc3c2C[C@@H]2C[C@H](O)CN2C(=O)[C@H](CC)NC(=O)[C@H](C)NC)[nH]c2cc(F)ccc12 [Cmpd 184, Birinapant (TL32711)]",++
13,"CC(C)(c1ccc(O)cc1)c1ccc(O)cc1 [Cmpd 186, Bisphenol A]",++
14,"CCN1CCN(c2cc(-c3ccc(F)cc3)c3c(n2)CCCCCC3)CC1 [Cmpd 187, Blonanserin]",+++
15,"O=c1ccc2ccc(OCCCCN3CCN(c4cccc5sccc45)CC3)cc2[nH]1 [Cmpd 191, Brexpiprazole]",+++
16,"Oc1c(Br)cc(Br)c2cccnc12 [Cmpd 194, Broxyquinoline]",+++
17,"O=C(O)CCC(=O)O [Cmpd 196, Butane diacid]",++
18,"CN(Cc1ccc(C(C)(C)C)cc1)Cc1cccc2ccccc12 [Cmpd 197, Butenafine HCl]",+++
19,"Clc1ccc(CCC(Cn2ccnc2)Sc2c(Cl)cccc2Cl)cc1 (stereo not shown) [Cmpd 198, Butoconazole nitrate]",+++
20,"COc1cc2nccc(Oc3ccc(NC(=O)C4(C(=O)Nc5ccc(F)cc5)CC4)cc3)c2cc1OC.O=C(O)C[C@H](O)C(=O)O [Cmpd 199, Cabozantinib malate (XL184)]",++
21,"O=C(O)/C=C/c1ccc(O)c(O)c1 [Cmpd 200, Caffeic acid]",+

row,SMILES,Compound Myofibroblast Cytotoxicity Activity
1,O=C(/C=C/c1ccc(O)c(O)c1)OCCc1ccccc1 [Cmpd 201],++
2,"C=C1CC[C@H](O)C/C1=C/C=C1\CCC[C@]2(C)[C@@H]([C@H](C)CCCC(C)(C)O)CC[C@@H]12 [Cmpd 202, Calcifediol]",+++
3,"C=C1/C(=C\C=C2/CCC[C@]3(C)[C@@H]([C@H](C)/C=C/[C@@H](O)C4CC4)CC[C@@H]23)C[C@@H](O)C[C@@H]1O [Cmpd 203, Calcipotriol]",+++
4,"C=C1/C(=C\C=C2/CCC[C@]3(C)[C@@H]([C@H](C)CCCC(C)(C)O)CC[C@@H]23)C[C@@H](O)C[C@@H]1O [Cmpd 204, Calcitriol]",+++
5,"O=S(=O)([O-])c1cc(O)ccc1O.O=S(=O)([O-])c1cc(O)ccc1O.[Ca+2] [Cmpd 205, Calcium dobesilate]",++
6,"C=C(C)[C@@H]1CC[C@@]2(C)[C@H]1[C@H]1CCC3[C@@]4(C)CC[C@H](O)C(C)(C)[C@@H]4CC[C@@]3(C)[C@]1(C)C[C@@H]2O (stereo partly shown) [Cmpd 207, Calenduladiol]",+
7,"Cc1ccc([C@@H]2O[C@H](CO)[C@@H](O)[C@H](O)[C@H]2O)cc1Cc1ccc(-c2ccc(F)cc2)s1.O [Cmpd 209, Canagliflozin (hemihydrate)]",+++++
8,"CCOc1nc2cccc(C(=O)O)c2n1Cc1ccc(-c2ccccc2-c2nnn[nH]2)cc1 [Cmpd 210, Candesartan]",++
9,"CCOc1nc2cccc(C(=O)OC(C)OC(=O)OC3CCCCC3)c2n1Cc1ccc(-c2ccccc2-c2nnn[nH]2)cc1 (stereo not shown) [Cmpd 211, Candesartan Cilexetil]",+++
10,"CCCCCCCCCC(=O)O [Cmpd 212, Caprate (10:0)]",++
11,"C[N+](C)(C)CCOC(N)=O.[Cl-] [Cmpd 214, Carbamoylcholine chloride]",++
12,"O=NN(CCCl)C(=O)NCCCl [Cmpd 218, Carmustine]",++
13,"CC(C)(C)NCC(O)COc1cccc2c1CCC(=O)N2 (stereo not shown) [Cmpd 219, Carteolol HCl]",++
14,"Cc1ccc(C(C)C)cc1O [Cmpd 220, Carvacrol]",++
15,"COc1ccccc1OCCNCC(O)COc1cccc2[nH]c3ccccc3c12 (stereo not shown) [Cmpd 221, Carvedilol]",+++
16,"C=C1CC[C@H]2O[C@]2(C)CC[C@@H]2[C@@H]1CC2(C)C [Cmpd 222, Caryophyllene Oxide]",++
17,"COc1cc2c(Oc3ccc4[nH]c(C)cc4c3F)ncnc2cc1OCCCN1CCCC1 [Cmpd 226, Cediranib (AZD217)]",++++
18,"CC1=C(C(=O)O)N2C(=O)[C@@H](NC(=O)[C@H](N)c3ccc(O)cc3)[C@H]2SC1 [Cmpd 227, Cefadroxil (hydrate)]",++
19,"Cc1nnc(SCC2=C(C(=O)O)N3C(=O)[C@@H](NC(=O)Cn4cnnn4)[C@H]3SC2)s1 [Cmpd 228, Cefazolin (sodium salt)]",+++
20,"CO/N=C(\C(=O)N[C@@H]1C(=O)N2C(C(=O)OCOC(=O)C(C)(C)C)=C(C)CS[C@H]12)c1csc(N)n1.Cl [Cmpd 230, Cefetamet pivoxil hydrochloride]",+++++
21,"O=C(O)C1=C(CSc2nnnn2CS(=O)(=O)O)CS[C@@H]2[C@H](NC(=O)[C@H](O)c3ccccc3)C(=O)N12 [Cmpd 232, Cefonicid (sodium salt)]",++++

row,SMILES,Compound Myofibroblast Cytotoxicity Activity
1,"CO/N=C(\C(=O)N[C@@H]1C(=O)N2C(C(=O)O)=C(COC(C)=O)CS[C@H]12)c1csc(N)n1 [Cmpd 233, Cefotaxime (sodium salt)]",+++
2,"CO[C@@]1(NC(=O)Cc2cccs2)C(=O)N2C(C(=O)O)=C(COC(N)=O)CS[C@@H]21 [Cmpd 234, Cefoxitin (sodium salt)]",+++++
3,"CO/N=C(\C(=O)N[C@@H]1C(=O)N2C(C(=O)[O-])=C(CSC(=O)c3ccco3)CS[C@H]12)c1csc(N)n1.[Na+] [Cmpd 237, Ceftiofur sodium]",++
4,"CO/N=C(\C(=O)N[C@@H]1C(=O)N2C(C(=O)OC(C)OC(C)=O)=C(COC(N)=O)CS[C@H]12)c1ccco1 (stereo partly shown) [Cmpd 238, Cefuroxime axetil]",++
5,"O=C[C@H](O)[C@@H](O)[C@H](O[C@@H]1O[C@H](CO)[C@@H](O)[C@H](O)[C@H]1O)[C@H](O)CO [Cmpd 239, Cellobiose]",+++
6,"COc1ccc2cc1Oc1ccc(cc1)C[C@H]1c3c(cc4c(c3Oc3cc5c(cc3OC)CCN(C)[C@@H]5C2)OCO4)CCN1C [Cmpd 241, Cepharanthine]",++
7,"C[C@H](CCC(=O)O)[C@H]1CC[C@H]2[C@@H]3[C@H](O)C[C@@H]4C[C@H](O)CC[C@]4(C)[C@H]3CC[C@]12C [Cmpd 245, Chenodeoxycholic Acid]",+++
8,"CC(=O)O.CC(=O)O.NC(=N\CCCCCC/N=C(N)/N=C(\N)Nc1ccc(Cl)cc1)/N=C(\N)Nc1ccc(Cl)cc1 [Cmpd 247, Chlorhexidine diacetate]",+++++
9,"N=C(NCCCCCCNC(=N)NC(=N)Nc1ccc(Cl)cc1)NC(=N)Nc1ccc(Cl)cc1.O=C(O)[C@H](O)[C@@H](O)[C@H](O)[C@H](O)CO.O=C(O)[C@H](O)[C@@H](O)[C@H](O)[C@H](O)CO [Cmpd 248, Chlorhexidine digluconate]",+++
10,"[H]/N=C(\N/C(=N/[H])NCCCCCCNC(=N)NC(=N)Nc1ccc(Cl)cc1)Nc1ccc(Cl)cc1 [Cmpd 249, Chlorhexidine HCl]",+++++
11,"CN(C)CCN(Cc1ccc(Cl)cc1)c1ccccn1 [Cmpd 250, Chloropyramine hydrochloride]",++
12,"Oc1c(Cl)cc(Cl)c2cccnc12 [Cmpd 251, Chloroxine]",++++
13,"CN(C)CCCN1c2ccccc2Sc2ccc(Cl)cc21 [Cmpd 253, Chlorpromazine HCl]",+++
14,"CN(C)CC/C=C1/c2ccccc2Sc2ccc(Cl)cc21 [Cmpd 254, Chlorprothixene]",+++
15,"CN(C)[C@@H]1C(O)=C(C(N)=O)C(=O)[C@@]2(O)C(O)=C3C(=O)c4c(O)ccc(Cl)c4[C@@](C)(O)[C@H]3C[C@@H]12 [Cmpd 256, Chlortetracycline HCl]",++
16,"C[N+](C)(C)CCO.O=C([O-])C(O)C(O)C(=O)O (stereo not shown) [Cmpd 257, Choline bitartrate]",+++
17,"Cc1cc(C2CCCCC2)n(O)c(=O)c1 [Cmpd 258, Ciclopirox]",++++
18,"Cc1cc(C2CCCCC2)n(O)c(=O)c1.NCCO [Cmpd 259, Ciclopirox ethanolamine]",+++
19,"CC1(C)C[C@@H]1C(=O)N/C(=C\CCCCSC[C@H](N)C(=O)O)C(=O)O [Cmpd 260, Cilastatin]",++++
